Results on 21 molecules are retold here after ChEMBL document CHEMBL4699610, “Synthesis and biological evaluation of anti-tubercular activity of Schiff bases of 2-Amino thiazoles” (2020).

In brackets after ≈: the same amount, converted by molar mass.

This experiment concerns Mycobacterium tuberculosis. In words: Antitubercular activity against Mycobacterium tuberculosis H37Rv assessed as bacterial growth inhibition by MABA relative to control. It is filed as functional. For orientation: The colour change of resazurin is a common sign of viable cells or microbes.
The MIC is the least concentration at which growth counts as inhibited. As for `Nc1nc(-c2ccc(NC(=O)c3ccccc3)cc2)cs1`, the MIC amounted to 50 µg/mL (≈ 169 µM).
With `O=C1CCC(=O)N1c1ccc(-c2csc(N/C=C\c3ccc(O)cc3)n2)cc1` the figure was 100 µg/mL (≈ 255 µM).
On to `O=C(Nc1ccc(-c2csc(N/C=C\c3ccccc3[N+](=O)[O-])n2)cc1)c1ccccc1`, for which the minimum inhibitory concentration (MIC) turned out to be 6.25 µg/mL (≈ 14.1 µM).
`O=C(Nc1ccc(-c2csc(N/C=C\c3cccc(Cl)c3)n2)cc1)c1ccccc1`: the MIC stood at 25 µg/mL (≈ 57.9 µM).
Under `COc1cc(/C=C\Nc2nc(-c3ccc(N4C(=O)c5ccccc5C4=O)cc3)cs2)cc(OC)c1OC` stands 6.25 µg/mL (≈ 12.2 µM).
In the case of `O=C1CCC(=O)N1c1ccc(-c2csc(N/C=C\c3ccc(F)cc3)n2)cc1`, the MIC is 12.5 µg/mL (≈ 31.8 µM).
With `O=C(Nc1ccc(-c2csc(N/C=C\c3ccc(O)cc3)n2)cc1)c1ccccc1` the figure was 6.25 µg/mL (≈ 15.1 µM); with `O=C(Nc1ccc(-c2csc(N/C=C\c3ccc(F)cc3)n2)cc1)c1ccccc1`, 12.5 µg/mL (≈ 30.1 µM).
With `COc1cc(/C=C\Nc2nc(-c3ccc(N4C(=O)CCC4=O)cc3)cs2)cc(OC)c1OC`, the MIC was 25 µg/mL (≈ 53.7 µM).
For the molecule `Nc1nc(-c2ccc(N3C(=O)CCC3=O)cc2)cs1`, the MIC is 6.25 µg/mL (≈ 22.9 µM).
`Nc1nc(-c2ccc(N3C(=O)c4ccccc4C3=O)cc2)cs1`: the MIC was 12.5 µg/mL (≈ 38.9 µM).
Under `O=C1CCC(=O)N1c1ccc(-c2csc(N/C=C\c3cccc(Cl)c3)n2)cc1` stands 25 µg/mL (≈ 61 µM); under `O=C1CCC(=O)N1c1ccc(-c2csc(N/C=C\c3ccccc3[N+](=O)[O-])n2)cc1`, 100 µg/mL (≈ 238 µM).
Under `O=C1c2ccccc2C(=O)N1c1ccc(-c2csc(N/C=C\c3ccccc3[N+](=O)[O-])n2)cc1` stands 25 µg/mL (≈ 53.4 µM).
Take `COc1cc(/C=C\Nc2nc(-c3ccc(NC(=O)c4ccccc4)cc3)cs2)cc(OC)c1OC`: the minimal inhibitory concentration (MIC) is 25 µg/mL (≈ 51.3 µM).
As to `O=C(O)c1cn(C2CC2)c2cc(N3CCNCC3)c(F)cc2c1=O` [CIPROFLOXACIN], the minimal inhibitory concentration (MIC) is 3.12 µg/mL (≈ 9.43 µM).
Under `CC[C@@H](CO)NCCN[C@@H](CC)CO` [ETHAMBUTOL] stands 3.2 µg/mL (≈ 15.7 µM); under `NNC(=O)c1ccncc1` [ISONIAZID], 1.6 µg/mL (≈ 11.7 µM); under `NC(=O)c1cnccn1` [PYRAZINAMIDE], 3.12 µg/mL (≈ 25.4 µM).
Regarding `CO[C@H]1/C=C/O[C@@]2(C)Oc3c(C)c(O)c4c(O)c(c(/C=N/N5CCN(C)CC5)c(O)c4c3C2=O)NC(=O)/C(C)=C\C=C\[C@H](C)[C@H](O)[C@@H](C)[C@@H](O)[C@@H](C)[C@H](OC(C)=O)[C@@H]1C` [RIFAMPIN], the MIC amounted to 0.8 µg/mL (≈ 0.972 µM).
As for `CN[C@@H]1[C@H](O[C@H]2[C@H](O[C@H]3[C@H](O)[C@@H](O)[C@H](N=C(N)N)[C@@H](O)[C@@H]3N=C(N)N)O[C@@H](C)[C@]2(O)C=O)O[C@@H](CO)[C@H](O)[C@H]1O` [STREPTOMYCIN], the minimal inhibitory concentration (MIC) was 0.8 µg/mL (≈ 1.38 µM).
